Reference: patent US8772504B2, “Substituted benzoxazole, benzimidazole, oxazolopyridine and imidazopyridine derivatives as gamma secretase modulators” (Janssen Pharmaceuticals, Inc., priority 2009, dated 2014)
pIC50: −log10 of the molar value.

How the values were obtained:
Aβ42 = experiment: In vivo efficacy Method 1: brain soluble Aβ42 by ELISA; set-up: species or system mouse; conditions: Table 4a, single oral dose, overnight fasted animals, sacrificed after 4 h, soluble fraction of brain homogenates
Outline: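 Overnight-fasted rodents or APP transgenic mice given a single oral dose in 20% Captisol or 20% hydroxypropyl β-cyclodextrin and sacrificed after 4 h. Right-hemisphere homogenate high-speed supernatant used: neutralized portion for Aβtotal, Oasis HLB-purified and concentrated eluate for Aβ42, both quantified by ELISA.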

Aβtotal = experiment: Screening for γ-secretase-modulating activity, Method 1: Aβtotal sandwich ELISA on SKNBE2 cell media; assay type: cell-based; conditions: SKNBE2 cells carrying APP 695 wild type
Outline: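 SKNBE2 cells expressing wild-type APP 695 were treated with compound for 18 hours. Aβtotal in the medium was measured by sandwich ELISA (6E10 capture, biotinylated 4G8 detection, fluorogenic peroxidase read-out). IC50 came from a 4-parameter fit of % inhibition with top/bottom fixed at 100/0 and Hill slope 1, or as averaged IC50 from % of untreated control.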

[1] = Homo sapiens, Table 3a, 18 hours, XLfit, top/bottom fixed to 100 and 0, hill slope 1
[2] = Homo sapiens, Table 3b, non-linear regression of % of control, averaged IC50 values
[3] = Table 3a, 18 hours, XLfit, top/bottom fixed to 100 and 0, hill slope 1
[4] = Table 3b, non-linear regression of % of control, averaged IC50 values

pIC50 (Aβtotal; [1])	pIC50 (Aβtotal; [2])	pIC50 (Aβtotal; [3])	pIC50 (Aβtotal; [4])	Structure (SMILES)	Aβ42 (% Ctrl) _Mean (Aβ42) [% Ctrl]
< 5.52	< 5.52			COc1cc(Nc2cccc3c2nc(-c2ccc(F)cc2)n3C)ccc1-n1cnc(C)n1 [Compound 4]	64
< 5.52	< 5.52			COc1cc(Nc2nccc3c2nc(-c2ccc(F)cc2)n3C)ccc1-n1cnc(C)c1 [Compound 8]	46
< 5.52	< 5.52			COc1nc(Nc2cccc3c2nc(-c2ccc(F)cc2)n3C)ccc1-n1cnc(C)c1 [Compound 15]	31
		< 5.52	< 5.52	CCn1c(CC2CC2)nc2c(Nc3ccc(-n4cnc(C)c4)c(OC)c3)cccc21 [Compound 36]	79
		< 5.52	< 5.52	COc1cc(Nc2cccc3c2nc(Oc2ccccc2)n3C)ccc1-n1cnc(C)c1 [Compound 61]	89
		< 5.52	< 5.52	Cc1cn(-c2ccc(Nc3cccc4c3nc(-c3ccc(F)cc3)n4C)cc2F)cn1 [Compound 67]	71
		< 5.52	< 5.52	Cc1ncn(-c2ccc(Nc3cccc4c3nc(-c3ccc(F)cc3)n4C(C)C)cc2)n1.Cl.Cl [Compound 73]	87
		< 5.52	< 5.52	COc1cc(Nc2cccc3c2nc(-c2ccc(F)cc2)n3C(C)C)ccc1-n1cnc(C)n1.Cl.Cl [Compound 75]	67
		< 5.52	< 5.00	Cc1ncn(-c2ccc(Nc3cccc4c3nc(-c3ccc(F)cc3)n4C(C)C)cn2)n1 [Compound 76]	86
		< 5.00	< 5.00	COc1cc(Nc2nccc3c2nc(-c2ccc(F)cc2)n3C)ccc1-n1cnc(C)n1 [Compound 92]	60
< 5.52	5.93			COc1cc(Nc2cc(C(C)C)nc3c2nc(-c2ccc(F)cc2)n3C)ccc1-n1cnc(C)n1 [Compound 110]	
< 5.52	< 5.52			COc1cc(-c2nc3c(Nc4ccc(-n5cnc(C)n5)c(OC)c4)nccc3n2C)ccc1Cl [Compound 114]	
		< 5.00		COc1nc(Nc2cc(F)cc3c2nc(-c2ccc(F)cc2)n3C)ccc1-n1cnc(C)c1 [Compound 115]	97
			< 5.52	COc1cc(Nc2nccc3c2nc(-c2ccccc2C(F)(F)F)n3C)ccc1-n1cnc(C)n1 [Compound 130]	75
			< 5.52	COc1cc(Nc2nc(C)cc3c2nc(-c2ccc(F)cc2)n3C)ccc1-n1cnc(C)n1 [Compound 164]	72

Structure (SMILES)	pIC50 (Aβtotal; [1])	pIC50 (Aβtotal; [2])	pIC50 (Aβtotal; [3])	pIC50 (Aβtotal; [4])	Aβ42 (% Ctrl) _Mean (Aβ42) [% Ctrl]
COc1cc(Nc2cccc3c2nc(-c2ccc(F)cc2)n3C)ccc1-n1cnc(C)c1 [Compound 1]	< 6.00	4.87			57
